Reference: patent publication US20260199242A1, “PROCESSES FOR MAKING CYCLIC LIPID IMPLANTS FOR INTRAOCULAR USE” (Allergan, Inc., priority 2006, published 2026)

Columns and labels:
[1] = Potency of bimatoprost from melt-extruded implants as percent of label strength by HPLC (FIG. 1); assay type: physicochemical
Procedure: Typical extrusion temperatures for a PLGA implant are from about 85° C. to about 110° C. […] As shown by FIG. 1, five different formulation bimatoprost containing sustained release implants or drug delivery systems (“DDS”) were made. Proceeding from left to right to left along the x axis of FIG. 1 these five formulations were: The theoretical maximum potency of bimatoprost is by definition equal to the label strength (“LS”) of the bimatoprost. For example, the label strength of a one milligram implant which comprises 150 μg of bimatoprost is 150 μg. […] We determined the potency of the bimatoprost released from the implants made as a percent of their label strength using HPLC (high pressure liquid chromatography). Thus, the bimatoprost implants (each weighing about 1 mg) made were dissolved in 0.5 mL acetonitrile in a 10 mL volumetric flask and sonicated for 5 min. The flask was then filled to volume with diluent (72:18:10 water:acetonitrile:methanol); mixed well, and transferred to a HPLC vial for analysis. The HPLC analysis was performed using a Waters Alliance 2695 HPLC system, Waters Symmetry®C18 reverse-phase column 4.6 mm×75 mm, and a Waters 2487 UV detector. The conditions for analysis were flow rate of 1.5 mL/minute, UV wavelength of 210 nm, column temperature of 30° C. and mobile phase of 72:18:10 (water:acetonitrile:methanol, v/v/v) with 0.03% (w/v) trifluoroacetic acid. The injection volume of samples and standards assayed was 75 uL with a cycle time of 45 min.

[2] = cited from earlier work
[3] = lower temperature and faster rate in a low pH environment; cited from earlier work
[4] = tested on: patients with age-related macular degeneration (ARMD); conditions: infusion; cited from earlier work

potency of the bimatoprost released from the DDS (percent of label strength) ([1]; DDS made by melt extrusion carried out at 57° C.) | potency of the bimatoprost released from the DDS (percent of label strength) ([1]; DDS made by melt extrusion carried out at 85° C.) | bimatoprost therapeutically inactive (loss of potency) ([1]; extrusion temperature of about 80° C. or higher) [%] | SMILES | solubility in water [2] | temperature above which bimatoprost can degrade if heated [3] | visual acuity [4]
more than 90% | about 40% | ≤ 50 | CCNC(=O)CCC/C=C\C[C@@H]1[C@@H](/C=C/[C@@H](O)CCc2ccccc2)[C@H](O)C[C@@H]1O [Bimatoprost] | slightly soluble | greater than 65 °C | 
 |  |  | CCCCC[C@H](O)/C=C/[C@H]1[C@H](O)CC(=O)[C@@H]1CCCCCCC(=O)O [prostaglandin E1] |  |  | improvement in visual acuity
